Experimental data taken from US10383848B2, “Indole-based therapeutics” (Creighton University, priority 2016, dated 2019).
Values after ≈ are worked out from the molar mass of the structure shown.

Legend:
Assay type in all cases: cell-based
M. abscessus DCI #21 = test: MIC, resazurin microtiter assay; details: Mueller Hinton II; for MIC: Mycobacteroides abscessus, read-out: MIC M. abscessus DCI #21
[1] = tested on: M. tuberculosis H37Rv mc^26206; test: microbe, parasite or virus in culture; details: for MIC: Mycobacterium tuberculosis, H37RV, read-out: MIC M. tb H37 Rv (mc2-6206)
M. avium 104 = test: MIC, resazurin microtiter assay; details: Mycobacterium avium, 104; Mueller Hinton II; read-out: MIC M. avium 104
M. chelonae ATCC 35752 = test: MIC, resazurin microtiter assay; details: for MIC: Mycobacteroides chelonae, ATCC35752, Mueller Hinton II, read-out: MIC M. chelonae ATCC 35752
M. bolletii ATCC 14472 = test: MIC, resazurin microtiter assay; details: for MIC: Mycobacteroides abscessus, ATCC14472, Mueller Hinton II, read-out: MIC M. bolletii ATCC 14472
M. smegmatis mc^2155 = test: MIC, resazurin microtiter assay; details: for MIC: Mycolicibacterium smegmatis, MC^2155, 7H9-ADC-0.05% Tween 80, read-out: MIC M. smeg. mc^2155
M. abscessus ATCC 19977 = test: MIC, resazurin microtiter assay; details: Mueller Hinton II; for MIC: Mycobacteroides abscessus, ATCC19977, read-out: MIC M. abscessus ATCC 19977
[2] = tested on: M. massiliense CIP 108297; test: MIC, resazurin microtiter assay; details: for MIC: Mycobacteroides abscessus, CIP108297, Mueller Hinton II, read-out: MIC M. massiliense CIP 108297
M. intracellulare 1956 = test: MIC, resazurin microtiter assay; details: Mueller Hinton II; read-out: MIC M. avium Intracellulare 1956
M. massiliense CRM 0019 = test: MIC, resazurin microtiter assay; details: for MIC: Mycobacteroides abscessus, CRM0019, Mueller Hinton II, read-out: MIC M. massiliense CRM 0019
M. xenopi WT = test: MIC, resazurin microtiter assay; details: Mycobacterium xenopi, Mueller Hinton II; read-out: MIC M. xenopi WT

Structure (SMILES)	MIC (M. abscessus DCI #21)	MIC [1]	MIC (M. avium 104)	MIC (M. chelonae ATCC 35752)	MIC (M. bolletii ATCC 14472)	MIC (M. smegmatis mc^2155)	MIC (M. abscessus ATCC 19977)	MIC [2]	MIC (M. intracellulare 1956)	MIC (M. massiliense CRM 0019)	MIC (M. xenopi WT)	MIC M. abscessus DCI #21 (M. abscessus DCI #21)	MIC M. tb H37 Rv (mc2-6206) [1]	MIC M. chelonae ATCC 35752 (M. chelonae ATCC 35752; Mueller Hinton II)	MIC M. bolletii ATCC 14472 (M. bolletii ATCC 14472; Mueller Hinton II)	MIC M. smeg. mc^2155 (M. smegmatis mc^2155; 7H9-ADC-0.05% Tween 80)	MIC M. abscessus ATCC 19977 (M. abscessus ATCC 19977)	MIC M. massiliense CIP 108297 ([2]; Mueller Hinton II)	MIC M. massiliense CRM 0019 (M. massiliense CRM 0019; Mueller Hinton II)
CCC12CC3CC(C1)CC(NC(=O)c1cc4ccccc4[nH]1)(C3)C2 [Compound 6, N-(3-ethyl-1-adamantyl)-1H-indole-2-carboxamide]	> 32 µg/mL	1.25 µg/mL (≈ 3.88 µM)	> 32 µg/mL	> 32 µg/mL	> 32 µg/mL	> 20 µg/mL	> 32 µg/mL	> 32 µg/mL	> 32 µg/mL	> 32 µg/mL	1 to 2 µg/mL (≈ 3.1 to 6.2 µM)								
O=C(NC1CCCCCCC1)c1cc2ccccc2[nH]1 [Compound 10, N-cyclooctyl-1H-indole-2-carboxamide]	> 32 µg/mL	0.39 µg/mL (≈ 1.44 µM)	> 32 µg/mL	> 32 µg/mL	32 µg/mL (≈ 118 µM)	25 µg/mL (≈ 92.5 µM)	> 32 µg/mL	> 32 µg/mL	> 32 µg/mL	32 µg/mL (≈ 118 µM)	2 µg/mL (≈ 7.4 µM)								
Cc1cc(C)c2cc(C(=O)NC3C4CC5CC(C4)CC3C5)[nH]c2c1 (stereo not shown) [Compound 24, N-2-adamantyl-4,6-dimethyl-1H-indole-2-carboxamide]	> 32 µg/mL		> 32 µg/mL	> 32 µg/mL	> 32 µg/mL	> 20 µg/mL	> 32 µg/mL	> 32 µg/mL	> 32 µg/mL	> 32 µg/mL	0.5 to 1 µg/mL (≈ 1.55 to 3.1 µM)								
CCC12CC3CC(C1)CC(NC(=O)c1cc4c(C)cc(C)cc4[nH]1)(C3)C2 [Compound 21, N-(3-ethyl-1-adamantyl)-4,6-dimethyl-1H-indole-2-carboxamide]	> 32 µg/mL		> 32 µg/mL	> 32 µg/mL	> 32 µg/mL	> 20 µg/mL	> 32 µg/mL	> 32 µg/mL	> 32 µg/mL	> 32 µg/mL	> 32 µg/mL								
CCCCCCCCNC(=O)c1cc2c(C)cc(C)cc2[nH]1 [Compound 33, N-octyl-4,6-dimethyl-1H-indole-2-carboxamide]	> 32 µg/mL	> 20 µg/mL	> 32 µg/mL	> 32 µg/mL	> 32 µg/mL	2.5 to 5 µg/mL (≈ 8.32 to 16.6 µM)	> 32 µg/mL	> 32 µg/mL	> 32 µg/mL	> 32 µg/mL	> 32 µg/mL								
O=C(NC1C2CC3CC(C2)CC1C3)c1cc2ccccc2[nH]1 (stereo not shown) [Compound 9, N-(2-adamantyl)-1H-indole-2-carboxamide]	> 32 µg/mL	0.39 µg/mL (≈ 1.32 µM)	> 32 µg/mL	> 32 µg/mL	32 µg/mL (≈ 109 µM)	> 25 µg/mL	> 32 µg/mL	> 32 µg/mL	> 32 µg/mL	32 µg/mL (≈ 109 µM)	2 µg/mL (≈ 6.79 µM)								
Cc1cc(C)c2cc(C(=O)NCC34CC5CC(CC(C5)C3)C4)[nH]c2c1 [Compound 23, N-(1-(1-adamantyl)methyl)-4,6-dimethyl-1H-indole-2-carboxamide]	> 32 µg/mL		> 32 µg/mL	> 32 µg/mL	> 32 µg/mL	> 20 µg/mL	> 32 µg/mL	> 32 µg/mL	> 32 µg/mL	> 32 µg/mL	1 µg/mL (≈ 2.97 µM)								
Cc1cc(C)c2cc(C(=O)NC(C)C34CC5CC(CC(C5)C3)C4)[nH]c2c1 (stereo not shown) [Compound 22, N-(1-(1-adamantyl)ethyl)-4,6-dimethyl-1H-indole-2-carboxamide]	> 32 µg/mL		> 32 µg/mL	16 µg/mL (≈ 45.6 µM)	16 µg/mL (≈ 45.6 µM)	> 20 µg/mL	16 µg/mL (≈ 45.6 µM)	8 µg/mL (≈ 22.8 µM)	> 32 µg/mL	8 µg/mL (≈ 22.8 µM)	> 32 µg/mL								
Cc1cc(C)c2cc(C(=O)NC3CCC(C)CC3)[nH]c2c1 (stereo not shown) [Compound 29, 4,6-dimethyl-N-((1s,4s)-4-methylcyclohexyl)-1H-indole-2-carboxamide]	≤ 0.06 µg/mL		> 32 µg/mL	≤ 0.06 µg/mL	≤ 0.06 µg/mL	> 20 µg/mL	≤ 0.06 µg/mL	≤ 0.06 µg/mL	> 32 µg/mL	≤ 0.06 µg/mL	0.25 to 1 µg/mL (≈ 0.879 to 3.52 µM)								
Cc1cc(C)c2cc(C(=O)NCc3cccc(Cl)c3)[nH]c2c1 [Compound 34, N-(3-chlorobenzyl)-4,6-dimethyl-1H-indole-2-carboxamide]	> 32 µg/mL	> 5 µg/mL		> 32 µg/mL	> 32 µg/mL	> 20 µg/mL	> 32 µg/mL	> 32 µg/mL		> 32 µg/mL									
O=C(NC1CCCCCC1)c1cc2ccccc2[nH]1 [Compound 11, N-cycloheptyl-1H-indole-2-carboxamide]	> 32 µg/mL	> 5 µg/mL		> 32 µg/mL	> 32 µg/mL	> 20 µg/mL	> 32 µg/mL	> 32 µg/mL		> 32 µg/mL									
Cc1cc(C)c2cc(C(=O)NC3CCCCC3)[nH]c2c1 [Compound 27, N-cyclohexyl-4,6-dimethyl-1H-indole-2-carboxamide]	0.25 µg/mL (≈ 0.925 µM)		> 32 µg/mL	0.25 µg/mL (≈ 0.925 µM)	0.25 µg/mL (≈ 0.925 µM)	2.5 µg/mL (≈ 9.25 µM)	0.5 µg/mL (≈ 1.85 µM)	0.25 µg/mL (≈ 0.925 µM)	> 32 µg/mL	0.25 µg/mL (≈ 0.925 µM)	1 to 2 µg/mL (≈ 3.7 to 7.4 µM)								
O=C(NCc1cccc(Cl)c1)c1cc2ccccc2[nH]1 [Compound 19, N-(3-chlorobenzyl)-1H-indole-2-carboxamide]	> 32 µg/mL	> 5 µg/mL		> 32 µg/mL	> 32 µg/mL	> 20 µg/mL	> 32 µg/mL	> 32 µg/mL		> 32 µg/mL									
CC(NC(=O)c1cc2ccccc2[nH]1)C12CC3CC(CC(C3)C1)C2 (stereo not shown) [Compound 7, N-(1-(1-adamantyl)ethyl)-1H-indole-2-carboxamide]	16 µg/mL (≈ 49.6 µM)	> 5 µg/mL	> 32 µg/mL	2 µg/mL (≈ 6.2 µM)	16 µg/mL (≈ 49.6 µM)	> 20 µg/mL	16 µg/mL (≈ 49.6 µM)	8 µg/mL (≈ 24.8 µM)	32 µg/mL (≈ 99.2 µM)	8 µg/mL (≈ 24.8 µM)	8 µg/mL (≈ 24.8 µM)								
CCCCCCCCNC(=O)c1cc2ccccc2[nH]1 [Compound 18, N-octyl-1H-indole-2-carboxamide]	> 32 µg/mL	> 10 µg/mL		> 32 µg/mL	> 32 µg/mL	> 25 µg/mL	> 32 µg/mL	> 32 µg/mL		> 32 µg/mL									
CCCCCCCNC(=O)c1cc2ccccc2[nH]1 [Compound 17, N-heptyl-1H-indole-2-carboxamide]	> 32 µg/mL	> 10 µg/mL		> 32 µg/mL	> 32 µg/mL	> 25 µg/mL	> 32 µg/mL	> 32 µg/mL		> 32 µg/mL									
O=C(NCC12CC3CC(CC(C3)C1)C2)c1cc2ccccc2[nH]1 [Compound 8, N-(1-(1-adamantyl)methyl)-1H-indole-2-carboxamide]	2 µg/mL (≈ 6.48 µM)	> 5 µg/mL	> 32 µg/mL	1 µg/mL (≈ 3.24 µM)	2 µg/mL (≈ 6.48 µM)	> 20 µg/mL	2 µg/mL (≈ 6.48 µM)	2 µg/mL (≈ 6.48 µM)	> 32 µg/mL	> 32 µg/mL	4 µg/mL (≈ 13 µM)								
CC1CCC(NC(=O)c2cc3ccccc3[nH]2)CC1 (stereo not shown) [Compound 15]			> 32 µg/mL						> 32 µg/mL		16 µg/mL (≈ 62.4 µM)	>32 µg/mL	5 µg/mL (≈ 19.5 µM)	16 µg/mL (≈ 62.4 µM)	16 µg/mL (≈ 62.4 µM)	12.5 µg/mL (≈ 48.8 µM)	>32 µg/mL	16 µg/mL (≈ 62.4 µM)	16 µg/mL (≈ 62.4 µM)
CC1CCC(NC(=O)c2cc3ccccc3[nH]2)CC1 (stereo not shown) [Compound 14, N-((1s,4s)-4-methylcyclohexyl)-1H-indole-2-carboxamide]	> 32 µg/mL	> 10 µg/mL		> 32 µg/mL	> 32 µg/mL	> 25 µg/mL	> 32 µg/mL	> 32 µg/mL		> 32 µg/mL									
O=C(NC1CCCC1)c1cc2ccccc2[nH]1 [Compound 13, N-cyclopentyl-1H-indole-2-carboxamide]	> 32 µg/mL	> 10 µg/mL		> 32 µg/mL	> 32 µg/mL	> 25 µg/mL	> 32 µg/mL	> 32 µg/mL		> 32 µg/mL									
O=C(NC1CCCCC1)c1cc2ccccc2[nH]1 [Compound 12, N-cyclohexyl-1H-indole-2-carboxamide]	> 32 µg/mL	> 10 µg/mL		> 32 µg/mL	> 32 µg/mL	> 25 µg/mL	> 32 µg/mL	> 32 µg/mL		> 32 µg/mL									
Cc1cc(C)c2cc(C(=O)NC34CC5CC(CC(C5)C3)C4)[nH]c2c1 [Compound 20, N-1-adamantyl-4,6-dimethyl-1H-indole-2-carboxamide]	32 µg/mL (≈ 99.2 µM)		> 32 µg/mL	> 32 µg/mL	> 32 µg/mL	1.25 to 2.5 µg/mL (≈ 3.88 to 7.75 µM)	> 32 µg/mL	> 32 µg/mL	> 32 µg/mL	> 32 µg/mL	> 32 µg/mL								
